In patent US20060241175A1, “Vehicle for topical delivery of anti-inflammatory compounds” (priority 2002, published 2006) one finds solubility data, which are given here for two molecules.

Molecules are shown by their SMILES. Converted amounts (≈) assume the structure as drawn. Read-outs that look alike come from different tables or passages of the source.

Data set [1] in a line: physchem. The conditions noted are these: organic solvent or mixture, thermodynamic from solid.
For data set [2] the following is noted: in olive or corn oil; cited from earlier work.

As for `COc1ccc2c(c1)c(CC(=O)O)c(C)n2C(=O)c1ccc(Cl)cc1` [Indomethacin], the solubility in data set [1] (maximum solubility) is 160 mg/mL (≈ 447 mM); in data set [2], “below 0.2%”.
As for `CN1C(C(=O)Nc2ccccn2)=C(O)c2ccccc2S1(=O)=O` [Piroxicam], the solubility in data set [1] (solubility) is 2.9 to 3.2 mg/mL (≈ 8.75 to 9.66 mM); in data set [2] it was “below 0.05%”.
